Test results published in ChEMBL document CHEMBL4507282, “Data for DCP probe BI-1950” (2021).

What was measured:
[1] = test system: Tyrosine-protein kinase ABL1 (Homo sapiens), P00519 [E255K]; details: Compound concentration 1000.0 nM
[2] = test system: Tyrosine-protein kinase ABL1 (Homo sapiens), P00519 [F317L]; details: Compound concentration 1000.0 nM
[3] = target: Activin receptor type-1 (Homo sapiens) (UniProt Q04771); details: Compound concentration 1000.0 nM
[4] = target: ALK tyrosine kinase receptor (Homo sapiens) (UniProt Q9UM73); details: Compound concentration 1000.0 nM
[5] = target: Mitogen-activated protein kinase kinase kinase 6 (Homo sapiens) (UniProt O95382); details: Compound concentration 1000.0 nM
[6] = target: Serine/threonine-protein kinase BRSK1 (Homo sapiens) (UniProt Q8TDC3); details: Compound concentration 1000.0 nM
[7] = target: Calcium/calmodulin-dependent protein kinase type II subunit beta (Homo sapiens) (UniProt Q13554); details: Compound concentration 1000.0 nM
[8] = target: Cyclin-dependent kinase 4 (Homo sapiens) (UniProt P11802); details: Compound concentration 1000.0 nM
[9] = target: Casein kinase I isoform delta (Homo sapiens) (UniProt P48730); details: Compound concentration 1000.0 nM
[10] = target: Dual specificity tyrosine-phosphorylation-regulated kinase 2 (Homo sapiens) (UniProt Q92630); details: Compound concentration 1000.0 nM
[11] = test system: Epidermal growth factor receptor (Homo sapiens), P00533 [UNDEFINED MUTATION]; details: Compound concentration 1000.0 nM
[12] = target: Ephrin type-A receptor 5 (Homo sapiens) (UniProt P54756); details: Compound concentration 1000.0 nM
[13] = target: Fibroblast growth factor receptor 4 (Homo sapiens) (UniProt P22455); details: Compound concentration 1000.0 nM
[14] = test system: Receptor-type tyrosine-protein kinase FLT3 (Homo sapiens), P36888 [D835Y]; details: Compound concentration 1000.0 nM
[15] = target: Mitogen-activated protein kinase kinase kinase kinase 1 (Homo sapiens) (UniProt Q92918); details: Compound concentration 1000.0 nM
Chain of Mitogen-activated protein kinase kinase kinase kinase 1 (Homo sapiens) (Q92918 whole entry, looked up): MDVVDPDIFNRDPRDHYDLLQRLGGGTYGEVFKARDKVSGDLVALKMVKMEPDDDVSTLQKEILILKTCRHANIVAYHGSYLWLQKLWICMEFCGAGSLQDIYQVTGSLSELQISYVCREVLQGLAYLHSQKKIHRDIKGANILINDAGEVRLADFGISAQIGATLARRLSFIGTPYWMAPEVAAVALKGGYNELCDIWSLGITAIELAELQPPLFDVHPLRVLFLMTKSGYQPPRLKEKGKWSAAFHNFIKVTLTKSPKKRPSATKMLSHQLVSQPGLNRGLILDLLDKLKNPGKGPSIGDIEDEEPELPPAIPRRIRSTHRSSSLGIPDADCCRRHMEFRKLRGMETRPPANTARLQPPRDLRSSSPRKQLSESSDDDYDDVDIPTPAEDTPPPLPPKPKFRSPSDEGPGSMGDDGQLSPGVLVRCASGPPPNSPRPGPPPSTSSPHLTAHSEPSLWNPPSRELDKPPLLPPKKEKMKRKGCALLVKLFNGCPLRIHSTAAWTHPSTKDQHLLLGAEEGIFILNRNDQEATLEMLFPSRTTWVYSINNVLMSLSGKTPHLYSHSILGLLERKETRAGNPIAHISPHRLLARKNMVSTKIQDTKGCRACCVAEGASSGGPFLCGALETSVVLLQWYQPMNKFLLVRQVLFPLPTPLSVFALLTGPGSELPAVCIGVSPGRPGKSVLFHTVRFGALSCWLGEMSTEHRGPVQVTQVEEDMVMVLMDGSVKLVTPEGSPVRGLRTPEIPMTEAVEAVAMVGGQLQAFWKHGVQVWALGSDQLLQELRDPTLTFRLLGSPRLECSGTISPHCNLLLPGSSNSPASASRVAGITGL

[16] = target: Insulin-like growth factor 1 receptor (Homo sapiens) (UniProt P08069); details: Compound concentration 1000.0 nM
[17] = target: Inhibitor of nuclear factor kappa-B kinase subunit epsilon (Homo sapiens) (UniProt Q14164); details: Compound concentration 1000.0 nM
[18] = target: Tyrosine-protein kinase JAK1 (Homo sapiens) (UniProt P23458); details: Compound concentration 1000.0 nM
[19] = target: Mitogen-activated protein kinase 9 (Homo sapiens) (UniProt P45984); details: Compound concentration 1000.0 nM
[20] = target: Serine/threonine-protein kinase STK11 (Homo sapiens) (UniProt Q15831); details: Compound concentration 1000.0 nM
[21] = target: Leucine-rich repeat serine/threonine-protein kinase 2 (Homo sapiens) (UniProt Q5S007); details: Compound concentration 1000.0 nM
[22] = target: Mitogen-activated protein kinase kinase kinase 4 (Homo sapiens) (UniProt Q9Y6R4); details: Compound concentration 1000.0 nM
[23] = target: MAP/microtubule affinity-regulating kinase 3 (Homo sapiens) (UniProt P27448); details: Compound concentration 1000.0 nM
[24] = target: Dual specificity mitogen-activated protein kinase kinase 2 (Homo sapiens) (UniProt P36507); details: Compound concentration 1000.0 nM
Chain of Dual specificity mitogen-activated protein kinase kinase 2 (Homo sapiens) (P36507 whole entry): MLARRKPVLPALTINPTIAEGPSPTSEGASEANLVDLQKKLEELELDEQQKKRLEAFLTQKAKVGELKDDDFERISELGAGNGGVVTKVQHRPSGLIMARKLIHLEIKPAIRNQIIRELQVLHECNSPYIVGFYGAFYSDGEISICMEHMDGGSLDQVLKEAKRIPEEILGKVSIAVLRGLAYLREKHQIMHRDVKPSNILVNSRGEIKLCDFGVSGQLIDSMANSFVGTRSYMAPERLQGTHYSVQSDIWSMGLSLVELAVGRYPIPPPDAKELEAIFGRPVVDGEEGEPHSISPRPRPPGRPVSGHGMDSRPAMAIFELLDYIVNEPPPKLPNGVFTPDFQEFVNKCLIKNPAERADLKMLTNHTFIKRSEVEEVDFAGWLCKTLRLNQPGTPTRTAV

[25] = target: Hepatocyte growth factor receptor (Homo sapiens) (UniProt P08581); details: Compound concentration 1000.0 nM
[26] = target: Serine/threonine-protein kinase Nek7 (Homo sapiens) (UniProt Q8TDX7); details: Compound concentration 1000.0 nM
[27] = target: Phosphatidylinositol 4-phosphate 3-kinase C2 domain-containing subunit beta (Homo sapiens) (UniProt O00750); details: Compound concentration 1000.0 nM
[28] = target: Phosphatidylinositol 3-kinase C2 domain-containing subunit gamma (Homo sapiens) (UniProt O75747); details: Compound concentration 1000.0 nM
[29] = target: Phosphatidylinositol 4,5-bisphosphate 3-kinase catalytic subunit gamma isoform (Homo sapiens) (UniProt P48736); details: Compound concentration 1000.0 nM
[30] = target: Serine/threonine-protein kinase PLK2 (Homo sapiens) (UniProt Q9NYY3); details: Compound concentration 1000.0 nM
[31] = target: Protein kinase C eta type (Homo sapiens) (UniProt P24723); details: Compound concentration 1000.0 nM
[32] = target: Receptor-interacting serine/threonine-protein kinase 4 (Homo sapiens) (UniProt P57078); details: Compound concentration 1000.0 nM
[33] = target: Ribosomal protein S6 kinase alpha-4 (Homo sapiens) (UniProt O75676); details: Compound concentration 1000.0 nM
Chain of Ribosomal protein S6 kinase alpha-4 (Homo sapiens) (O75676 whole entry, looked up): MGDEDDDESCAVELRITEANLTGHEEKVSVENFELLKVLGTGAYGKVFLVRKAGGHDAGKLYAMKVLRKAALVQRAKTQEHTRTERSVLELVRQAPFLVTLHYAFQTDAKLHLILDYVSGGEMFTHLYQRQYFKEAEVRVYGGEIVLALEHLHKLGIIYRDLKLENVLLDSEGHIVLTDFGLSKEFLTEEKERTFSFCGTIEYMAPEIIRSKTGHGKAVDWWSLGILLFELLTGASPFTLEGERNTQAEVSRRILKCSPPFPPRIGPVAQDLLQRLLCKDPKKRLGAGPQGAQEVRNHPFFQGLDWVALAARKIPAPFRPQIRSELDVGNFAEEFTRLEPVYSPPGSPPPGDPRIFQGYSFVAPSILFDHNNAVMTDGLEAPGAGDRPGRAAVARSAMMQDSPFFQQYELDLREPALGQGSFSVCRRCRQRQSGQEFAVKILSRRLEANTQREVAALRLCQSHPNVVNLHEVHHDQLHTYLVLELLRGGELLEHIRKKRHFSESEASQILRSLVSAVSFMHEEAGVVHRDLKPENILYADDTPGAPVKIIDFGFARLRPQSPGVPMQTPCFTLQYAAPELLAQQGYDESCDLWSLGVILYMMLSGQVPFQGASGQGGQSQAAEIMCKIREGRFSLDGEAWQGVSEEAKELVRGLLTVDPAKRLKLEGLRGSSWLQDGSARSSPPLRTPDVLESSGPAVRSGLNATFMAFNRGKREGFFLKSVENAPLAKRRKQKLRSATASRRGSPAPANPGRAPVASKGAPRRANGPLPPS

[34] = target: Ribosomal protein S6 kinase beta-1 (Homo sapiens) (UniProt P23443); details: Compound concentration 1000.0 nM
[35] = target: Serine/threonine-protein kinase SIK2 (Homo sapiens) (UniProt Q9H0K1); details: Compound concentration 1000.0 nM
Chain of Serine/threonine-protein kinase SIK2 (Homo sapiens) (Q9H0K1 whole entry, looked up): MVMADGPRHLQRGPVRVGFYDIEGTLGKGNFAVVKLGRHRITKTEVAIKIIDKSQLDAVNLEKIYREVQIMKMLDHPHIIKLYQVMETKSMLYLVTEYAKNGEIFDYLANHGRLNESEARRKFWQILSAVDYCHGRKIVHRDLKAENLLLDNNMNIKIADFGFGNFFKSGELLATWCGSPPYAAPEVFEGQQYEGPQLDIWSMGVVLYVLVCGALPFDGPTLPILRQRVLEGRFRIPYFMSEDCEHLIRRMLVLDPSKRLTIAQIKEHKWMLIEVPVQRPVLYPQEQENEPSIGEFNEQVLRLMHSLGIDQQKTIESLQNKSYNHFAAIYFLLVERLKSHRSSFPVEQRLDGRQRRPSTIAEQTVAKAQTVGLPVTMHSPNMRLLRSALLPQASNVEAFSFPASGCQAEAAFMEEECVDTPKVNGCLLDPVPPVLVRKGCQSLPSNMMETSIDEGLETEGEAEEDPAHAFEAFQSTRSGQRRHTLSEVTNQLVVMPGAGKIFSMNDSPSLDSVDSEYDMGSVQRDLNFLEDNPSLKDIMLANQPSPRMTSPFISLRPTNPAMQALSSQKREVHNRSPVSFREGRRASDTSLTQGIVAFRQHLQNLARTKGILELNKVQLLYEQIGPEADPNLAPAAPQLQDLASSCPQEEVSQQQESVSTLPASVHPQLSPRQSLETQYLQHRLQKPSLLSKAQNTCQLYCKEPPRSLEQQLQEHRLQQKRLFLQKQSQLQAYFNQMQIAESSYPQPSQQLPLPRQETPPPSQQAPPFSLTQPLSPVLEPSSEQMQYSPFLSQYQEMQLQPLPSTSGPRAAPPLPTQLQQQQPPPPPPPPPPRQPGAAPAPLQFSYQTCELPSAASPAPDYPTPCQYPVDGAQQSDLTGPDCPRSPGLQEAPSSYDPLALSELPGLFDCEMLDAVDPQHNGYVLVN

[36] = target: SRSF protein kinase 2 (Homo sapiens) (UniProt P78362); details: Compound concentration 1000.0 nM
[37] = target: Serine/threonine-protein kinase TAO1 (Homo sapiens) (UniProt Q7L7X3); details: Compound concentration 1000.0 nM
[38] = target: Dual specificity testis-specific protein kinase 1 (Homo sapiens) (UniProt Q15569); details: Compound concentration 1000.0 nM
[39] = target: Serine/threonine-protein kinase tousled-like 2 (Homo sapiens) (UniProt Q86UE8); details: Compound concentration 1000.0 nM
[40] = target: Non-receptor tyrosine-protein kinase TNK1 (Homo sapiens) (UniProt Q13470); details: Compound concentration 1000.0 nM
[41] = target: Serine/threonine-protein kinase 32C (Homo sapiens) (UniProt Q86UX6); details: Compound concentration 1000.0 nM
Chain of Serine/threonine-protein kinase 32C (Homo sapiens) (Q86UX6 whole entry): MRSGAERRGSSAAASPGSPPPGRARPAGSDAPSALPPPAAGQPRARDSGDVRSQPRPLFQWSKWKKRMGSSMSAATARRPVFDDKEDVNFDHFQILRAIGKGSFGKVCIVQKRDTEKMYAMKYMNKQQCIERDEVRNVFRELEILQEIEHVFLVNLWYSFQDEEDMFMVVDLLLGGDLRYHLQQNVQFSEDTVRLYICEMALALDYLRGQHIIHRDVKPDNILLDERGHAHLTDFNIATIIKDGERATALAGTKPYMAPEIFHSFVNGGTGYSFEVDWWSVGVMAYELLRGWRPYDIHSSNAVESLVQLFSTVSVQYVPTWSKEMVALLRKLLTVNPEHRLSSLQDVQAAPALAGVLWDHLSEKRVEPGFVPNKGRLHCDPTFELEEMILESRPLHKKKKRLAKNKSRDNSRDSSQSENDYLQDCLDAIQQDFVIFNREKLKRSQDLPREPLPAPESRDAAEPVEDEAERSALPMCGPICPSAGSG

[42] = target: 5-hydroxytryptamine receptor 1B (Homo sapiens) (UniProt P28222); details: Compound concentration 10.0 uM
Chain of 5-hydroxytryptamine receptor 1B (Homo sapiens) (P28222 whole entry): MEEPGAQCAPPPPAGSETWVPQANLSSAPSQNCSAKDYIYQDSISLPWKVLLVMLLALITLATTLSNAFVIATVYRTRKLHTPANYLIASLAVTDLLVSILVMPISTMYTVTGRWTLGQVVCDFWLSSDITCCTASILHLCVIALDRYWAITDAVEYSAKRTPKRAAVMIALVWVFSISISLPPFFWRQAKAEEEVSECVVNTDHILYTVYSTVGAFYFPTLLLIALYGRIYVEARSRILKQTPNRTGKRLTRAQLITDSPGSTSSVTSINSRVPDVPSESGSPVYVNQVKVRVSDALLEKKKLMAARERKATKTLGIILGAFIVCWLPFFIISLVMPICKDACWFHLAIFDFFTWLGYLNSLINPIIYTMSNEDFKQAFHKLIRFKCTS

[43] = target: 5-hydroxytryptamine receptor 7 (Homo sapiens) (UniProt P34969); details: Compound concentration 10.0 uM
[44] = target: Histamine H1 receptor (Homo sapiens) (UniProt P35367); details: Compound concentration 10.0 uM
[45] = target: Alpha-1A adrenergic receptor (Homo sapiens) (UniProt P35348); details: Compound concentration 10.0 uM

Chain of Tyrosine-protein kinase ABL1 (Homo sapiens), P00519 [E255K] (P00519 whole entry E255K): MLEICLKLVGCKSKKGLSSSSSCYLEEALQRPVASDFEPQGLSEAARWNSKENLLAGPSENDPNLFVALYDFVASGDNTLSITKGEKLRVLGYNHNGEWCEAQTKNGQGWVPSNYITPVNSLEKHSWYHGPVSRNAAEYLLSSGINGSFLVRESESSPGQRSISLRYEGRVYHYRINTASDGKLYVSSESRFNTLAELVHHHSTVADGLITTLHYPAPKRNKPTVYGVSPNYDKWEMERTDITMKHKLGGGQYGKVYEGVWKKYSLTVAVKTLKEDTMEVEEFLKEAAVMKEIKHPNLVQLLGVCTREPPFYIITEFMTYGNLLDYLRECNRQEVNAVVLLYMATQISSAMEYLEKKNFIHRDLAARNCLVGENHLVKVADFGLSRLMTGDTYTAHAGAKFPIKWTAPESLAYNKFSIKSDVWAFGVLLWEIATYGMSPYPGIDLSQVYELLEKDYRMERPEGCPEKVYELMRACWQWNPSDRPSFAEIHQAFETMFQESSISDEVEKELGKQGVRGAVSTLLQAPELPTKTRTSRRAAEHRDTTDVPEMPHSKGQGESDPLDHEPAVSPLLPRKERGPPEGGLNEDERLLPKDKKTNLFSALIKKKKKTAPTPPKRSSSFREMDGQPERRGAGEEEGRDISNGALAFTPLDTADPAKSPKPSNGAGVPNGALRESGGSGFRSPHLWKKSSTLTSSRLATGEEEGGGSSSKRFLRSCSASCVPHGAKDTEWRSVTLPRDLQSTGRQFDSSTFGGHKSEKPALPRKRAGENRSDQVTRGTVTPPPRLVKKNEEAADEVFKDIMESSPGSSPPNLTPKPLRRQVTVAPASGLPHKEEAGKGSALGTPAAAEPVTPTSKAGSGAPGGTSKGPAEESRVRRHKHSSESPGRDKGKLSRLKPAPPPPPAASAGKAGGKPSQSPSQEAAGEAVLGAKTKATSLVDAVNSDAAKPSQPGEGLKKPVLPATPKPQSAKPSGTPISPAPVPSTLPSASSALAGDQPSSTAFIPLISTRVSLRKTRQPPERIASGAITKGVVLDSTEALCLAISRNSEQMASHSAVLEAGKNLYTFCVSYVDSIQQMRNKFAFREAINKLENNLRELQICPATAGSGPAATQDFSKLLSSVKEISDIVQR
Chain of Tyrosine-protein kinase ABL1 (Homo sapiens), P00519 [F317L] (P00519 whole entry F317L): as the sequence (P00519 whole entry E255K) above, with K255E, F317L counted along it

C[C@@]1(Cc2ccc(C#N)cc2)C(=O)N(c2cc(Cl)cc(Cl)c2)c2ncc(C(=O)NC3(c4nc(C5CCC5)no4)CC3)n21 [BI 9446]
inactive: residual activity [1] 95% | residual activity [2] 100% | residual activity [3] 89% | residual activity [4] 100% | residual activity [5] 82% | residual activity [6] 100% | residual activity [7] 90% | residual activity [8] 100% | residual activity [9] 100% | residual activity [10] 93% | residual activity [11] 100% | residual activity [12] 100% | residual activity [13] 96% | residual activity [14] 100% | residual activity [15] 100% | residual activity [16] 100% | residual activity [17] 80% | residual activity [18] 100% | residual activity [19] 100% | residual activity [20] 100% | residual activity [21] 93% | residual activity [22] 100% | residual activity [23] 100% | residual activity [24] 99% | residual activity [25] 100% | residual activity [26] 100% | residual activity [27] 100% | residual activity [28] 100% | residual activity [29] 95% | residual activity [30] 98% | residual activity [31] 100% | residual activity [32] 100% | residual activity [33] 100% | residual activity [34] 100% | residual activity [35] 100% | residual activity [36] 100% | residual activity [37] 97% | residual activity [38] 100% | residual activity [39] 97% | residual activity [40] 93% | residual activity [41] 99% | inhibition [42] 17.5% | inhibition [43] 4.18% | inhibition [44] 10.3% | inhibition [45] -1.65%

C[C@H](NC(=O)c1cnc2n1[C@](C)(Cc1ccc(C#N)cc1)C(=O)N2c1cc(Cl)c(F)c(Cl)c1)C(=O)NC1(c2ccccn2)CC1 [BI 1950]
inactive: residual activity [1] 93% | residual activity [2] 98% | residual activity [3] 97% | residual activity [4] 100% | residual activity [5] 100% | residual activity [6] 100% | residual activity [7] 100% | residual activity [8] 100% | residual activity [9] 100% | residual activity [10] 98% | residual activity [11] 100% | residual activity [12] 100% | residual activity [13] 100% | residual activity [14] 100% | residual activity [15] 100% | residual activity [16] 99% | residual activity [17] 89% | residual activity [18] 100% | residual activity [19] 92% | residual activity [20] 100% | residual activity [21] 100% | residual activity [22] 97% | residual activity [23] 92% | residual activity [24] 90% | residual activity [25] 100% | residual activity [26] 100% | residual activity [27] 85% | residual activity [28] 100% | residual activity [29] 86% | residual activity [30] 75% | residual activity [31] 90% | residual activity [32] 100% | residual activity [33] 92% | residual activity [34] 100% | residual activity [35] 100% | residual activity [36] 100% | residual activity [37] 86% | residual activity [38] 100% | residual activity [39] 59% | residual activity [40] 88% | residual activity [41] 100% | inhibition [42] 16.5% | inhibition [43] -4.31% | inhibition [44] 3.2% | inhibition [45] -8.89%
